Experiments:
Format in all cases: cell-based, human
MMP-3 [1] = assay: MMP-3 expression (ELISA of culture supernatant) in 2D cultured SW-1353 cells stimulated with IL-β; details: 2D SW-1353, 10 mM of inhibitor together with 0, 10, 100 and 1000 μg/ml DNA fragment mixture, IL-β 10 ng/ml
Procedure: (§1) The human chondrosarcoma cell line SW-1353 (HTB-94, ATCC, Mansassas, Va., USA) was cultured in DMEM (Dulbecco Modified Eagle's medium) supplemented with 10% FBS (fetal bovine serum) and 1% antibiotic-antifungal agent. An incubator for cell culture was kept at 37° C. under 5% CO2. For cell culture, cells were seeded into a culture flask at a density of 1.2×10^4 cells/cm^2. When a confluence of 80-90% was reached, the cells were trypsinized. The cells were subcultured 9 times before use in the experiment.
(§2) SW-1353 cells were treated with 10-1000 μg/ml of the DNA fragment mixture and 0.1-10 mM of each of glucosamine (GLN), N-acetyl-D-glucosamine (NAG), alliin, sodium butyrate (SB) and chondroitin sulfate (CS) for 24 hours, and stimulated with 10 ng/ml of IL-β for analysis of MMP expression therein.
(§3) To evaluate MMP expression, IL-β was dissolved in serum-free DMEM medium and used at a final concentration of 10 ng/ml. The cells were cultured at 37° C. under 5% CO2. The cell culture supernatant was collected, centrifuged, and then stored at −80° C. until use in the experiment. The amounts of MMP-3 and MMP-13 in the culture supernatant were measured using commercially available ELISA (enzyme-linked immunosorbent assays) according to the manufacturer's protocol.
(§4) Cells of test groups were cultured with 10 ng/ml of IL-β under the same conditions as those of the control group.

MMP-13 [2] = assay: MMP-13 expression (ELISA of culture supernatant) in 2D cultured SW-1353 cells stimulated with IL-β; details: 2D SW-1353, 10 mM of inhibitor together with 0, 10, 100 and 1000 μl/ml DNA fragment mixture, IL-β 10 ng/ml
Procedure: as §1, §2, §3, §4

MMP-3 [3] = assay: MMP-3 expression (ELISA) in 3D cultured SW-1353 cells stimulated with IL-β; details: 3D SW-1353, 10 mM of inhibitor together with 0, 10, 100 and 1000 μg/ml DNA fragment mixture, IL-β 10 ng/ml
Procedure: (§5) SW-1353 cells were grown on a 3D collagen […] with or without a DNA fragment mixture (polydeoxyribonucleotides (PDRN), 450 kDa, sterilized, BR Pharm Co, Wonju, South Korea). SW-1353 cells were harvested from the 2D culture, and the cells in the medium were counted. Next, the cells were spun down and cooled. For use of the DNA fragment mixture as an extracellular matrix (ECM) additive to 3D chondrocytes, 10 mg/ml of the DNA fragment mixture was dissolved in 10× PBS and diluted with 10× PBS at concentrations of 0 μg/ml, 10 μg/ml, 100 μg/ml and 1000 μg/ml. 10× PBS, containing different concentrations of the DNA fragment mixture, and rat tail collagen I solution diluted with DMEM at a concentration of 4 mg/ml, were mixed at a ratio of 1:10, and the mixture was adjusted to a pH of 7.0-7.4 with NaOH. Thereafter, the cells were carefully shaken to avoid air bubbles from entering the collagen solution. 2 μl of the solution was added to each well to construct a 3D gel-cell. The gel was kept in an incubator (37° C. and 5% CO2) for 45 minutes, and the 3D gel-cell matrix was exposed to serum-free medium for 48 hours. For drug screening from the DNA fragment mixture, the DNA fragment mixture was treated with serum-free medium after the SW-1353 cells were sufficiently grown.
as §2, §3
(§6) During 3D cell culture, chondrocytes were cultured in 10% serum-containing medium or serum-free medium, and the cultured chondrocytes were stimulated with IL-β (10 ng/ml).
(§7) In addition, after 24 hours of treatment with the DNA fragment mixture and IL-β in serum-free medium, two markers (MMP-3 and MMP-13) which are frequently involved in degenerative arthritis disease were analyzed.

MMP-13 [4] = assay: MMP-13 expression (ELISA) in 3D cultured SW-1353 cells stimulated with IL-β; details: 3D SW-1353, 10 mM of inhibitor together with 0, 10, 100 and 1000 μl/ml DNA fragment mixture, IL-β 10 ng/ml
Procedure: as §5, §2, §3, §6, §7

CCCC(=O)[O-].[Na+] [sodium butyrate]
decreased: expression level of MMP-3 protein (MMP-3 [1]) | expression level of MMP-13 protein (MMP-13 [2]) | expression level of MMP-3 protein (MMP-3 [3]) | expression level of MMP-13 protein (MMP-13 [4])

N[C@H]1C(O)O[C@H](CO)[C@@H](O)[C@@H]1O (some centres unmarked) [glucosamine]
decreased: expression level of MMP-3 protein (MMP-3 [1]) | expression level of MMP-13 protein (MMP-13 [2]) | expression level of MMP-3 protein (MMP-3 [3]) | expression level of MMP-13 protein (MMP-13 [4])

alliin
decreased: expression level of MMP-3 protein (MMP-3 [1]) | expression level of MMP-13 protein (MMP-13 [2]) | expression level of MMP-3 protein (MMP-3 [3]) | expression level of MMP-13 protein (MMP-13 [4])

CC(=O)N[C@H]1C(O)O[C@H](CO)[C@@H](O)[C@@H]1O (stereo partly drawn) [N-acetyl-D-glucosamine]
decreased: expression level of MMP-3 protein (MMP-3 [1]) | expression level of MMP-13 protein (MMP-13 [2]) | expression level of MMP-3 protein (MMP-3 [3]) | expression level of MMP-13 protein (MMP-13 [4])

chondroitin sulfate
decreased: expression level of MMP-3 protein (MMP-3 [1]) | expression level of MMP-13 protein (MMP-13 [2]) | expression level of MMP-3 protein (MMP-3 [3]) | expression level of MMP-13 protein (MMP-13 [4])

Reference: patent US20190374566A1, “COMPOSITION FOR PREVENTING AND TREATING ARTHRITIS, INCLUDING DNA FRAGMENT MIXTURE AND MATRIX METALLOPROTEINASE PRODUCTION INHIBITOR” (BR PHARM CO., LTD., priority 2018, published 2019)
